Assays:
[1] = In vitro release/permeation assay through porcine skin, Franz diffusion cells; format: in vitro ADME; conditions: infinite dose 300 µL of 1% solution; for Papp at 4 h, 1 %: pig, read-out: Permeability Coef. Kp (converted)
Protocol: (§1) The in vitro release test was conducted with artificial membrane (Whatman® Nuclepore™) and porcine sublingual mucosa as well as pig skin membrane as a reference. Biological membranes (mucosa and skin) were dermatomed at 500 ± 50 µm of thickness. Membranes were placed in vertical Franz diffusion cells and conditioned in a thermostatic bath at 43 °C to assure a membrane surface temperature of 32 ± 1 °C as in the previous TMWL study. The receptor solution used was the same PBS:EtOH (1:1) as before. Data on the TWML, temperature, and humidity of the membrane were obtained before initiating the test with the Tewameter TM300 (Courage-Khazaka, Cologne, Germany).
(§2) On the modified mucosas, a volume of 70 µL of each formulation was applied and after one hour an infinite dose (300 µL) of tested solution was applied. […] Receptor fluid was collected at different times (30 min, 1 h, 2 h, 4 h) and the same volume was immediately replaced with fresh fluid. The aliquots were appropriately diluted and filtered (0.45 µm, Cameo, Sigma-Aldrich, St. Louis, MO, USA) before their analysis with HPLC/DAD.
(§3) The release of the active substances was determined with the cumulative amount released (Qn, μg/cm^2), which represents the cumulative amount of the active substances quantified in the receptor fluid per area of the sample [34]. The equation is as follows (1):(1) Qn=Cn×Vc+∑i=1n−1(Ci×Vs)/A, where Qn is the cumulative amount of active substance released at time n (μg/cm^2); Cn is the concentration of active substance in the collected sample (μg/mL); Vc is the volume of the Franz diffusion cell (3 mL); ∑i=1n−1 Ci is the sum of the active substance concentrations (µg/mL) determined in sampling intervals 1 to n − 1; Vs is the volume of the collected sample; and A is the surface area of the applied membrane (1.86 cm^2).
(§4) The best absorption model to describe the release of active substances was obtained from the graphic representation of data release (values/time), as described by Mallandrich et al.. All data collected were processed over time to obtain the best fit equation for each membrane using the nonlinear regression software STATGRAPHICS® plus 5 (Statgraphics Technologies, Inc., The Plains, VA, USA). Selection of the best equation was made in accordance with the highest correlation coefficient corrected for the number of degrees of freedom (R^2). Following that analysis, the parameters of the flow (J, […]), the permeability coefficient (Kp, cm/h), the delay time (Tl, h), the maximum concentration (Cmax, µg/mL), the maximum time (tmax, h), and the area under the curve (AUC) were calculated for each membrane.
(§5) The software was OpenLab (version 2.2.0). […] Methanol (Merck, Darmstadt, Germany) was used as an extraction solvent for all active substances. All analytical procedures were validated following the guidelines developed by the International Conference on Harmonization (ICH). The calibration curve, limit of quantification (LoQ), and limit of detection (LoD) were obtained and are detailed in Table 5.

[2] = In vitro release/permeation assay through porcine sublingual mucosa, unmodified or modified with formulations, Franz diffusion cells; format: in vitro ADME; conditions: for permeability (in words): across skin, mucosa and modified mucosa; for decrease in the permeability coefficient promoted by F16: mucosa modified with F16 vs unmodified mucosa; for Papp at 4 h, 1 %: pig, read-out: Permeability Coef. Kp (converted); for area under the curve, flux and permeability through unmodified mucosa compared to skin: unmodified mucosa vs porcine skin
Protocol: as §1, §2, §3, §4, §5

[3] = cited from earlier work
[4] = cited from earlier work; remark: listed apart in the source

Molecule	Flux. J [1]	Lag Time. TL [1]	Papp at 4 h, 1 % [1]	Flux. J ([2]; MUCOSA F3)	Lag Time. TL ([2]; MUCOSA F3)	Flux. J ([2]; MUCOSA F6)	Lag Time. TL ([2]; MUCOSA F6)	Flux. J ([2]; MUCOSA F16)	Lag Time. TL ([2]; MUCOSA F16)	Flux. J ([2]; MUCOSA unmodified)	Lag Time. TL ([2]; MUCOSA unmodified)	permeability (in words) [2]	decrease in the permeability coefficient promoted by F16 [2]	Papp at 4 h, 1 % ([2]; MUCOSA F3)	Papp at 4 h, 1 % ([2]; MUCOSA F6)	Papp at 4 h, 1 % ([2]; MUCOSA F16)	Papp at 4 h, 1 % ([2]; MUCOSA unmodified)	area under the curve, flux and permeability through unmodified mucosa compared to skin [2]	pKa [3]	LogP (pH7.4) [4]
Cn1c(=O)c2c(ncn2C)n(C)c1=O [CAF, Caffeine]	75.09 ± 51.32 µg/cm^2/h	0.65 ± 0.24 h	1.68 ×10⁻⁶ cm/s	102.73 ± 30.73 µg/cm^2/h	0.10 ± 0.08 h	611.08 ± 85.12 µg/cm^2/h	0.28 ± 0.08 h	78.93 ± 11.05 µg/cm^2/h	-0.18 ± 0.03 h	428.40 ± 81.41 µg/cm^2/h	0.04 ± 0.34 h	high permeability	approximately 80%	2.3 ×10⁻⁶ cm/s	13.7 ×10⁻⁶ cm/s	1.77 ×10⁻⁶ cm/s	9.6 ×10⁻⁶ cm/s	approximately four times higher		
C[C@@H]1C[C@H]2[C@@H]3CCC4=CC(=O)C=C[C@]4(C)[C@@]3(F)[C@@H](O)C[C@]2(C)[C@@]1(O)C(=O)CO [DEX, Dexamethasone]	5.84 ± 3.46 µg/cm^2/h	0.62 ± 0.16 h		330.43 ± 11.68 µg/cm^2/h	0.36 ± 0.04 h	289.38 ± 99.51 µg/cm^2/h	0.64 ± 0.36 h	68.26 ± 1.67 µg/cm^2/h	-0.11 ± 0.27 h	335.25 ± 61.25 µg/cm^2/h	0.31 ± 0.13 h		approximately 80%						12.1	
CC(C)Cc1ccc(C(C)C(=O)O)cc1 (stereo not shown) [IBU, Ibuprofen]	24.79 ± 2.75 µg/cm^2/h	-0.24 ± 0.19 h	0.569 ×10⁻⁶ cm/s	498.25 ± 49.45 µg/cm^2/h	0.23 ± 0.01 h	451.01 ± 98.04 µg/cm^2/h	0.35 ± 0.06 h	74.41 ± 0.16 µg/cm^2/h	0.15 ± 0.003 h	346.91± 5.87 µg/cm^2/h	0.17 ± 0.07 h	intermediate permeability	approximately 80%	11.4 ×10⁻⁶ cm/s	10.4 ×10⁻⁶ cm/s	1.71 ×10⁻⁶ cm/s	7.96 ×10⁻⁶ cm/s	14 times higher		
Ivermectin	3.13 ± 0.86 µg/cm^2/h	0.59 ± 0.28 h		87.23 ± 21.83 µg/cm^2/h	0.28 ± 0.02 h	144.86 ± 29.93 µg/cm^2/h	0.32 ± 0.10 h	41.70 ± 5.67 µg/cm^2/h	-0.09 ± 0.46 h	63.75 ± 1.57 µg/cm^2/h	0.24 ± 0.001 h		approximately 40%						12.47	5.83

From article PMC10747729, “Permeation Protection by Waterproofing Mucosal Membranes” (Pharmaceutics, 2023)
